The values that follow come from patent US9474790B2, “Stable, protracted GLP-1/glucagon receptor co-agonists for medical use” (Novo Nordisk A/S, priority 2013, dated 2016).

Numbered stars: 1 amine (or outer) side, 2 acyl side, 3 side chain; on linkers, the order of the positions; unused ones are H or OH. Square brackets hold non-standard residues; d marks the D form. Side chains are listed from the residue outwards. Peptide text beside a SMILES is read from it. * marks the point of attachment. C18 diacid = O=C(O)CCCCCCCCCCCCCCCCC(=O)*; γGlu = O=C(O)[C@H](CCC(=O)[*:2])N[*:1]; Ac4c = NC1(C(=O)O)CCC1; AEEA = NCCOCCOCC(=O)O; Aib = CC(C)(N)C(=O)O

T1 sequence (P47871 26-477): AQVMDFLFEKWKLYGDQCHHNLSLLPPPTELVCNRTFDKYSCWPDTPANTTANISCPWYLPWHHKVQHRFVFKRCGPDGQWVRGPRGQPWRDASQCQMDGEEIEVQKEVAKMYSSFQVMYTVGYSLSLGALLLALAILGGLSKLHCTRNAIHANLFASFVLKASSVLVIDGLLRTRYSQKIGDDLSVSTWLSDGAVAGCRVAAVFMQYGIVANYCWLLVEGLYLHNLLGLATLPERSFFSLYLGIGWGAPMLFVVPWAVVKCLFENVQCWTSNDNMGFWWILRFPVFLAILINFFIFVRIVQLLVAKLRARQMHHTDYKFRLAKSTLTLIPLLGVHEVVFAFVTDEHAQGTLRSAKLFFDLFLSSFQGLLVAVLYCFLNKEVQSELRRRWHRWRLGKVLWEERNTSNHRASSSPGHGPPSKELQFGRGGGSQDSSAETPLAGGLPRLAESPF

This test has as its target T1, human glucagon receptor (Homo sapiens, UniProt P47871).
T1 construct: expressed in transfected cells; host or cells: BHK cells (parent BHK570, CRE luciferase clone BHK/KZ10-20-48), clone pLJ6'-4-25
The test is described as follows: Glucagon receptor binding, 125I-glucagon displacement SPA on isolated membranes. The note with it: displacement of 125I-glucagon from membranes; read-out: IC50 GlucR. As for the experimental part: The purpose of this assay was to test the in vitro receptor binding activity (i.e. affinity) of the glucagon derivatives of the invention. The receptor binding activity is a measure of affinity of a derivative for the human glucagon receptor.
The receptor binding of each compound to the human glucagon receptor was measured in a displacement binding assay. In this type of assay a labelled ligand (in this case 125I-glucagon) is bound to the receptor. Each derivative was added in a series of concentrations to isolated membranes containing the human glucagon receptor and displacement of the labelled ligand is monitored. The receptor binding was reported as the concentration at which half of the labelled ligand is displaced from the receptor, the IC50 value.
In order to test the binding of the derivatives to albumin, the assay may be performed in a very low concentration of serum albumin (max. 0.001% final assay concentration) as well as in the presence of a higher concentration of serum albumin (0.2% final assay concentration). An increase of the IC50 value, in the presence of serum albumin indicates an affinity to serum albumin and represents a method to predict a protracted pharmacokinetic profile of the test substance in animal models.
The following chemicals were used in the assay: DMEM w Glutamax (Gibco 61965-026), Pen/strep (Invitrogen 15140-122), G418 (Invitrogen 10131-027), Versene (Gibco 15040), 1 M Hepes (Gibco 15630), PBS (Invitrogen 14190-094), fetal calf serum (Invitrogen 16140-071), MgCl2 (Merck 1.05832.1000), EDTA (Invitrogen 15575-038), CaCl2 (Sigma, C5080), Tween 20 (Amresco 0850C335), ovalbumin (Sigma A5503), SPA particles (wheat germ agglutinin (WGA) SPA beads, Perkin Elmer RPNQ0001), [125I]-glucagon (produced in-house), OptiPlate™-96 (Packard 6005290).
HME buffer consisted of 25 mM HEPES, 2 mM MgCl2 and 1 mM EDTA, and pH was adjusted to 7.4. Assay buffer consisted of 50 mM HEPES supplemented with 5 mM MgCl2, 1 mM CaCl2, 0.02% Tween 20 and 0.1% Ovalbumin, and pH was adjusted to 7.4.
The cells used in this assay (clone BHK hGCGR A3*25) were BHK cells stable transfected with an expression plasmid containing the cDNA encoding the human glucagon receptor.
The cells were grown at 5% CO2 in DMEM, 10% fetal calf serum, 1% Pen/Strep (Penicillin/Streptomycin) and 1.0 mg/ml of the selection marker G418. To make a membrane preparation the cells were grown to approximately 80% confluence. The cells were washed twice in phosphate-buffered saline and harvested. The cells were pelleted using a brief centrifugation and the cell pellet was kept on ice. Lyse the cells by adding approx. 5 ml HME buffer, mix by pipetting and snap freeze in liquid nitrogen. Thaw quickly and add HME buffer to 10 ml. The cell pellet was homogenised with an ULTRA-THURRAX dispersing instrument for 20-30 sec. The homogenate was centrifuged at 20.000×G, 4° C. for 10 min. The pellet was re-suspended (homogenised) in 1-2 ml HME buffer. The protein concentration was determined. The membranes were aliquoted and snap-frozen in liquid nitrogen and stored at minus 80° C.
1. For the receptor binding assay, 50 μl of the assay buffer was added to each well of an assay plate.
2. Test compounds were serially diluted to give the following concentrations: 8×10EE-7 M, 8×10EE-8 M, 8×10EE-9 M, 8×10EE-10 M, 8×10EE-11 M, 8×10EE-12 M and 8×10EE-13 M. Twenty-five μl were added to appropriate wells in the assay plate.
3. Cell membrane aliquots were thawed and diluted to their working concentration. Fifty μl were added to each well in the assay plate.
4. WGA SPA beads were suspended in assay buffer at 20 mg/ml. The suspension was diluted to 10 mg/ml in assay buffer just prior to addition to the assay plate. Fifty μl were added to each well in the assay plate.
5. The incubation was started by adding 25 μl of 480 pM solution of [125I]-glucagon to each well of the assay plate. A 25 μl aliquot was reserved for measuring total counts/well.
6. The assay plate was incubated for 2 h at 25° C.
7. […]
A general note: Displacement assays read how much labelled ligand stays bound in the presence of the test substance.
In general, IC50 refers to the midpoint of a concentration-inhibition curve. For the molecule `CC(C)C[C@H](NC(=O)[C@H](Cc1ccc(O)cc1)NC(=O)[C@H](CCCNC(=N)N)NC(=O)[C@H](CO)NC(=O)[C@H](CC(C)C)NC(=O)[C@H](CC(=O)O)NC(=O)[C@H](CO)NC(=O)[C@@H](NC(=O)[C@H](Cc1ccccc1)NC(=O)[C@@H](NC(=O)CNC(=O)[C@H](CCC(N)=O)NC(=O)C1(NC(=O)[C@@H](N)Cc2c[nH]cn2)CCC1)[C@@H](C)O)[C@@H](C)O)C(=O)N[C@@H](CCC(=O)O)C(=O)N[C@@H](CO)C(=O)N[C@@H](CCCNC(=N)N)C(=O)N[C@@H](CCCNC(=N)N)C(=O)N[C@@H](C)C(=O)N[C@@H](CCCNC(=N)N)C(=O)N[C@@H](CCC(=O)O)C(=O)N[C@@H](Cc1ccccc1)C(=O)N[C@H](C(=O)N[C@@H](CCC(N)=O)C(=O)N[C@@H](Cc1c[nH]c2ccccc12)C(=O)N[C@@H](CC(C)C)C(=O)N[C@@H](CC(C)C)C(=O)N[C@@H](CCCCNC(=O)CC[C@H](NC(=O)CC[C@H](NC(=O)COCCOCCNC(=O)COCCOCCNC(=O)CC[C@H](NC(=O)CC[C@H](NC(=O)CCCCCCCCCCCCCCCCC(=O)O)C(=O)O)C(=O)O)C(=O)O)C(=O)O)C(=O)N[C@H](C(N)=O)[C@@H](C)O)C(C)C` [Example 59, N^ε28-[(4S)-4-carboxy-4-[[(4S)-4-carboxy-4-[[2-[2-[2-[[2-[2-[2-[[(4S)-4-carboxy-4-[[(4S)-4-carboxy-4-(17-carboxyheptadecanoylamino)butanoyl]amino]butanoyl]amino]ethoxy]ethoxy]acetyl]amino]ethoxy]ethoxy]acetyl]amino]butanoyl]amino]butanoyl]-[Acb2,Leu10,Arg12,Glu15,Arg20,Glu21,Leu27,Lys28]-Glucagon amide] (H-H[Ac4c]QGTFTSDLSRYLESRRAREFVQWLLK([γGlu-γGlu-AEEA-AEEA-γGlu-γGlu-C18 diacid])T-NH2; N-terminus assumed), the IC50 came to 1.4 nM.

For `CC(C)C[C@H](NC(=O)[C@H](Cc1ccc(O)cc1)NC(=O)[C@H](CCCCN)NC(=O)[C@H](CO)NC(=O)[C@H](CC(C)C)NC(=O)[C@H](CC(=O)O)NC(=O)[C@H](CO)NC(=O)[C@@H](NC(=O)[C@H](Cc1ccccc1)NC(=O)[C@@H](NC(=O)CNC(=O)[C@H](Cc1c[nH]cn1)NC(=O)C(C)(C)NC(=O)[C@@H](N)Cc1c[nH]cn1)[C@@H](C)O)[C@@H](C)O)C(=O)N[C@@H](CCC(=O)O)C(=O)N[C@@H](CO)C(=O)N[C@@H](CCCCN)C(=O)N[C@@H](CCCNC(=N)N)C(=O)N[C@@H](C)C(=O)N[C@@H](CCCNC(=N)N)C(=O)N[C@@H](CCC(=O)O)C(=O)N[C@@H](Cc1ccccc1)C(=O)N[C@H](C(=O)N[C@@H](CCC(N)=O)C(=O)N[C@@H](Cc1c[nH]c2ccccc12)C(=O)N[C@@H](CC(C)C)C(=O)N[C@@H](CC(C)C)C(=O)N[C@@H](CCCCNC(=O)CC[C@H](NC(=O)CC[C@H](NC(=O)COCCOCCNC(=O)COCCOCCNC(=O)CC[C@H](NC(=O)CCCCCCCCCCCCCCCCC(=O)O)C(=O)O)C(=O)O)C(=O)O)C(=O)N[C@H](C(N)=O)[C@@H](C)O)C(C)C` [Example 27, N^ε28-[(4S)-4-carboxy-4-[[(4S)-4-carboxy-4-[[2-[2-[2-[[2-[2-[2-[[(4S)-4-carboxy-4-(17-carboxyheptadecanoylamino)butanoyl]amino]ethoxy]ethoxy]acetyl]amino]ethoxy]ethoxy]acetyl]amino]butanoyl]amino]butanoyl]-[Aib2,His3,Leu10,Glu15,Lys17,Arg20,Glu21,Leu27, Lys28]-Glucagon amide] (H-H[Aib]HGTFTSDLSKYLESKRAREFVQWLLK([γGlu-γGlu-AEEA-AEEA-γGlu-C18 diacid])T-NH2; N-terminus assumed), the IC50 is 0.7 nM.

Turning to `CC(C)C[C@H](NC(=O)[C@H](CC(=O)O)NC(=O)[C@H](CC(C)C)NC(=O)[C@H](Cc1ccc(O)cc1)NC(=O)[C@H](CCCCN)NC(=O)[C@H](CO)NC(=O)[C@H](CC(C)C)NC(=O)[C@H](CC(=O)O)NC(=O)[C@H](CO)NC(=O)[C@@H](NC(=O)[C@H](Cc1ccccc1)NC(=O)[C@@H](NC(=O)CNC(=O)[C@H](CCC(N)=O)NC(=O)C(C)(C)NC(=O)[C@@H](N)Cc1c[nH]cn1)[C@@H](C)O)[C@@H](C)O)C(=O)N[C@@H](CCCCN)C(=O)N[C@@H](CCCNC(=N)N)C(=O)N[C@@H](C)C(=O)N[C@@H](CCCNC(=N)N)C(=O)N[C@@H](CCC(=O)O)C(=O)N[C@@H](Cc1ccccc1)C(=O)N[C@H](C(=O)N[C@@H](CCC(N)=O)C(=O)N[C@@H](Cc1c[nH]c2ccccc12)C(=O)N[C@@H](CC(C)C)C(=O)N[C@@H](CC(C)C)C(=O)N[C@@H](CCCCNC(=O)CC[C@H](NC(=O)CC[C@H](NC(=O)COCCOCCNC(=O)COCCOCCNC(=O)CC[C@H](NC(=O)CCCCCCCCCCCCCCCCC(=O)O)C(=O)O)C(=O)O)C(=O)O)C(=O)N[C@H](C(N)=O)[C@@H](C)O)C(C)C` [Example 26, N^ε28-[(4S)-4-carboxy-4-[[(4S)-4-carboxy-4-[[2-[2-[2-[[2-[2-[2-[[(4S)-4-carboxy-4-(17-carboxyheptadecanoylamino)butanoyl]amino]ethoxy]ethoxy]-acetyl]amino]ethoxy]ethoxy]acetyl]amino]butanoyl]amino]butanoyl]-[Aib2,Leu10,Leu16,Lys17,Arg20,Glu21, Leu27,Lys28]-Glucagon amide] (H-H[Aib]QGTFTSDLSKYLDLKRAREFVQWLLK([γGlu-γGlu-AEEA-AEEA-γGlu-C18 diacid])T-NH2), the IC50 was 4 nM.

Consider `CC(C)C[C@H](NC(=O)[C@H](Cc1ccc(O)cc1)NC(=O)[C@H](CCCCN)NC(=O)[C@H](CO)NC(=O)[C@H](CC(C)C)NC(=O)[C@H](CC(=O)O)NC(=O)[C@H](CO)NC(=O)[C@@H](NC(=O)[C@H](Cc1ccccc1)NC(=O)[C@@H](NC(=O)CNC(=O)[C@H](CCC(N)=O)NC(=O)C(C)(C)NC(=O)[C@@H](N)Cc1c[nH]cn1)[C@@H](C)O)[C@@H](C)O)C(=O)N[C@@H](CCC(=O)O)C(=O)N[C@@H](CO)C(=O)N[C@@H](CCCNC(=N)N)C(=O)N[C@@H](CCCNC(=N)N)C(=O)N[C@@H](C)C(=O)N[C@@H](CCCNC(=N)N)C(=O)N[C@@H](CCC(=O)O)C(=O)N[C@@H](Cc1ccccc1)C(=O)N[C@H](C(=O)N[C@@H](CCC(N)=O)C(=O)N[C@@H](Cc1c[nH]c2ccccc12)C(=O)N[C@@H](CC(C)C)C(=O)N[C@@H](CC(C)C)C(=O)N[C@@H](CCCCNC(=O)CC[C@H](NC(=O)CC[C@H](NC(=O)[C@H](CO)NC(=O)[C@H](CCC(=O)O)NC(=O)[C@H](CO)NC(=O)CC[C@H](NC(=O)CC[C@H](NC(=O)CCCCCCCCCCCCCCCCC(=O)O)C(=O)O)C(=O)O)C(=O)O)C(=O)O)C(=O)N[C@H](C(N)=O)[C@@H](C)O)C(C)C` [Example 67, N^ε28-[(4S)-4-carboxy-4-[[(4S)-4-carboxy-4-[[(2S)-2-[[(2S)-4-carboxy-2-[[(2S)-2-[[(4S)-4-carboxy-4-[[(4S)-4-carboxy-4-(17-carboxyheptadecanoylamino)butanoyl]amino]butanoyl]amino]-3-hydroxypropanoyl]amino]butanoyl]amino]-3-hydroxypropanoyl]amino]butanoyl]amino]butanoyl]-[Aib2,Leu10,Glu15,Arg20,Glu21,Leu27,Lys28]-Glucagon amide] (H-H[Aib]QGTFTSDLSKYLESRRAREFVQWLLK([γGlu-γGlu-Ser-Glu-Ser-γGlu-γGlu-C18 diacid])T-NH2; N-terminus assumed), for which the IC50 is 1.5 nM.
